Experiment [1] concerns the target farnesyl protein transferase (Homo sapiens, UniProt P49354+P49356). The experiment in a line: FPT inhibition, in vitro enzyme assay (procedure of WO 95/10516). The class given is biochemical.
In a further experiment the test system is COS Cell. In words: COS Cell IC50 (Cell-Based Assay, procedure of WO 95/10516). Here is the method:
FPT IC50 (inhibition of farnesyl protein transferase, in vitro enzyme assay) and COS Cell IC50 (Cell-Based Assay) were determined following the assay procedures described in WO 95/10516, published Apr. 20, 1995. GGPT IC50 (inhibition of geranylgeranyl protein transferase, in vitro enzyme assay), Cell Mat Assay, and anti-tumor activity (in vivo anti-tumor studies) could be determined by the assay procedures described in WO 95/10516. The disclosure of WO 95/10516 is incorporated herein by reference thereto.

The structures appear in SMILES notation.

For orientation: IC50 means the point on the concentration scale where inhibition reaches its midpoint. Higher therefore signals a need for much substance.

`NC(=O)N1CC[C@H](CC(=O)N2CCC(C3c4ncc(Br)cc4CCc4cc(Cl)cc(Cl)c43)CC2)C1` (single isomer, unassigned) [Example 1] came in with an IC50 in experiment [1] of 38.6 pM. This counts as picomolar.

Regarding `NC(=O)N1CC[C@@H](CC(=O)N2CCC(C3c4ncc(Br)cc4CCc4cc(Cl)cc(Cl)c43)CC2)C1` (single isomer, unassigned) [Example 2], half-maximal inhibition with COS Cell (IC50) was put at 30 pM. This counts as picomolar.
